# Where a name gives a salt, the structure may show the parent alone. Read-outs that look alike come from different tables or passages of the source.
# Key:
# [1] = test system: Plasmodium falciparum (P.f.); assay: In vitro activity vs. P. falciparum; format: cell-based
# [2] = test system: Trypanosoma brucei rhodesiense (T.b.r.); assay: In vitro activity vs. T. b. rhodesiense; format: cell-based
# [3] = test system: virulent STIP900 strain of T.b.r.; assay: Mouse model of T.b.r. infection; format: in vivo
# [4] = read-out: IC-50 values versus Plasmodium falciparum (p.f.)
# [5] = read-out: IC-50 values versus Trypanosoma brucei rhodesiense (T.b.r.)
SMILES,"IC50 ([1]; Table 1, read-out: P.f. IC50) [µM]","IC50 ([2]; Table 1, read-out: T.b.r. IC50) [µM]",melting point,further results
"N=C(N)c1ccc(-c2ccc(O)c(-c3nc4cc(C(=N)N)ccc4[nH]3)c2)cc1 [Compound 4, 2-(4′-carbamimidoyl-4-hydroxy-biphenyl-3-yl)-1H-benzimidazole-5-carboxamidine acetate salt]",0.0021,0.027,–,"IC50 [1, 4]: < 0.003 µM"
"N=C(NO)c1cccc(-c2ccc(O)c(-c3nc4cc(C(=N)NO)ccc4[nH]3)c2)c1 [Compound 7, N-hydroxy-2-[4-hydroxy-3′-(N-hydroxycarbamimidoyl)-biphenyl-3-yl]-1H-benzimidazole-5-carboxamidine]",–,–,352 to 355 °C,–
"CC(=O)O.N=C(N)c1cccc(-c2ccc(O)c(-c3nc4cc(C(=N)N)ccc4[nH]3)c2)c1 [Compound 8, 2-(3′-carbamimidoyl-4-hydroxy-biphenyl-3-yl)-1H-benzimidazole-5-carboxamidine acetate salt]",0.034,0.213,208 to 209 °C (dec.),–
"COc1cc(-c2ccc(C(=N)NO)cc2)cc(-c2nc3cc(C(=N)NO)ccc3[nH]2)c1O [Compound 11, N-hydroxy-2-[4-hydroxy-4′-(N-hydroxycarbamimidoyl)-5-methoxy-biphenyl-3-yl]-1H-benzimidazole-5-carboxamidine]",–,–,319 to 321 °C,–
"CC(=O)O.COc1cc(-c2ccc(C(=N)N)cc2)cc(-c2nc3cc(C(=N)N)ccc3[nH]2)c1O [Compound 12, 2-(4′-carbamimidoyl-4-hydroxy-5-methoxy-biphenyl-3-yl)-1H-benzimidazole-5-carboxamidine acetate salt]",0.131,0.031,230 to 231 °C (dec.),–
"N=C(NO)c1ccc(-c2cccc(-c3nc4cc(C(=N)NO)ccc4[nH]3)c2O)cc1 [Compound 15, N-hydroxy-2-[2-hydroxy-4′-(N-hydroxycarbamimidoyl)-biphenyl-3-yl]-1H-benzimidazole-5-carboxamidine]",–,–,322 to 325 °C (dec.),–
"CC(=O)O.N=C(N)c1ccc(-c2cccc(-c3nc4cc(C(=N)N)ccc4[nH]3)c2O)cc1 [Compound 16, 2-(4′-carbamimidoyl-2-hydroxy-biphenyl-3-yl)-1H-benzimidazole-5-carboxamidine acetate salt]",0.131,0.017,228 to 229.5 °C (dec.),"cure of the virulent STIP900 strain of T.b.r. in a mouse model [3]: cure; IC50 [2, 5]: < 0.02 µM"
"COc1ccc(-c2ccc(C(=N)NO)cc2)cc1-c1nc2cc(C(=N)NO)ccc2[nH]1 [Compound 19, N-hydroxy-2-[4′-(N-hydroxycarbamimidoyl)-4-methoxy-biphenyl-3-yl]-1H-benzimidazole-5-carboxamidine]",–,–,> 340 °C,–
"CC(=O)O.COc1ccc(-c2ccc(C(=N)N)cc2)cc1-c1nc2cc(C(=N)N)ccc2[nH]1 [Compound 20, 2-(4′-carbamimidoyl-4-methoxy-biphenyl-3-yl)-1H-benzimidazole-5-carboxamidine acetate salt]",0.04,0.053,220 to 221 °C,–
"N=C(NO)c1ccc(-c2cccc(-c3nc4cc(C(=N)NO)ccc4[nH]3)c2)cc1 [Compound 23, N-hydroxy-2-[4′-(N-hydroxycarbamimidoyl)-biphenyl-3-yl]-1H-benzimidazole-5-carboxamidine]",–,–,317 to 319 °C,–
"N=C(N)c1ccc(-c2cccc(-c3nc4cc(C(=N)N)ccc4[nH]3)c2)cc1 [Compound 24, 2-(4′-carbamimidoyl-biphenyl-3-yl)-1H-benzimidazole-5-carboxamidine acetate salt]",0.0275,0.0044,–,"IC50 [2, 5]: < 0.02 µM"
"Cc1cc(C(=N)NO)ccc1-c1cccc(-c2nc3cc(C(=N)NO)ccc3[nH]2)c1 [Compound 27, N-hydroxy-2-[4′-(N-hydroxycarbamimidoyl)-2′-methyl-biphenyl-3-yl]-1H-benzimidazole-5-carboxamidine]",–,–,295 to 297 °C (dec.),–
"CC(=O)O.Cc1cc(C(=N)N)ccc1-c1cccc(-c2nc3cc(C(=N)N)ccc3[nH]2)c1 [Compound 28, 2-(4′-carbamimidoyl-2′-methyl-biphenyl-3-yl)-1H-benzimidazole-5-carboxamidine acetate salt]",0.055,0.023,201 to 203 °C,–
"N=C(NO)c1ccc(-c2ccc(-c3nc4cc(C(=N)NO)ccc4[nH]3)c(F)c2)cc1 [Compound 31, 2-[3-fluoro-4′-(N-hydroxycarbamimidoyl)-biphenyl-4-yl]-N-hydroxy-1H-benzimidazole-5-carboxamidine]",–,–,281 to 283 °C (dec.),–
"CC(=O)O.N=C(N)c1ccc2[nH]c(-c3ccc(-c4ccc(C(=N)N)c(F)c4)cc3)nc2c1 [Compound 32, 2-(4′-carbamimidoyl-3′-fluoro-biphenyl-4-yl)-1H-benzimidazole-5-carboxamidine acetate salt]",–,–,210 to 212 °C (dec.),"IC50 ([1]; Table 2, read-out: P.f. IC50): 0.0013 µM; IC50 [1, 4]: < 0.003 µM; IC50 ([2]; Table 2, read-out: T.b.r. IC50): 0.035 µM"
"CC(=O)O.COc1ccc(-c2ccc(C(=N)N)cn2)cc1-c1nc2cc(C(=N)N)ccc2[nH]1 [Compound 36, 2-[5-(5-carbamimidoyl-pyridin-2-yl)-2-methoxyphenyl]-1H-benzimidazole-5-carboxamidine acetate salt]",0.364,0.014,231 to 232 °C (dec.),"IC50 [2, 5]: < 0.02 µM"
"N=C(NO)c1ccc(-c2cccc(-c3nc4cc(C(=N)NO)ccc4[nH]3)c2)nc1 [Compound 39, N-hydroxy-2-{3-[5-(N-hydroxycarbamimidoyl)-pyridin-2-yl]-phenyl}-1H-benzimidazole-5-carboxamidine]",–,–,295 to 297 °C (dec.),–
"CC(=O)O.N=C(N)c1ccc(-c2cccc(-c3nc4cc(C(=N)N)ccc4[nH]3)c2)nc1 [Compound 40, 2-[3-(5-Carbamimidoyl-pyridin-2-yl)-phenyl]-1H-benzimidazole-5-carboxamidine acetate salt]",0.096,0.015,198 to 200 °C (dec.),"cure of the virulent STIP900 strain of T.b.r. in a mouse model [3]: cure; IC50 [2, 5]: < 0.02 µM"
"N=C(NO)c1ccc(-c2ccc(-c3nc4cc(C(=N)NO)ccc4[nH]3)cc2)nc1 [Compound 43, N-hydroxy-2-{4-[5-(N-hydroxycarbamimidoyl)-pyridin-2-yl]-phenyl}-1H-benzimidazole-5-carboxamidine]",–,–,305 to 308 °C (dec.),–
"CC(=O)O.N=C(N)c1ccc(-c2ccc(-c3nc4cc(C(=N)N)ccc4[nH]3)cc2)nc1 [Compound 44, 2-[4-(5-carbamimidoyl-pyridin-2-yl)-phenyl]-1H-benzimidazole-5-carboxamidine acetate salt]",–,–,240 to 241 °C,"IC50 ([1]; Table 2, read-out: P.f. IC50): 0.007 µM; IC50 ([2]; Table 2, read-out: T.b.r. IC50): 0.041 µM"
"N=C(NO)c1ccc(-c2ccc(-c3nc4cc(C(=N)NO)ccc4[nH]3)cc2)c(OCc2ccccc2)c1 [Compound 47, 2-[2′-benzyloxy-4′-(N-hydroxycarbamimidoyl)-biphenyl-4-yl]-N-hydroxy-1H-benzimidazole-5-carboxamidine]",–,–,250 to 253 °C (dec.),–
"CC(=O)O.N=C(N)c1ccc(-c2ccc(-c3nc4cc(C(=N)N)ccc4[nH]3)cc2)c(O)c1 [Compound 48, 2-(4′-carbamimidoyl-2′-hydroxy-biphenyl-4-yl)-1H-benzimidazole-5-carboxamidine acetate salt]",–,–,220 to 222 °C,"IC50 ([1]; Table 2, read-out: P.f. IC50): 0.0191 µM; IC50 ([2]; Table 2, read-out: T.b.r. IC50): 0.027 µM"
"Cc1cc(C(=N)NO)ccc1-c1ccc(-c2nc3cc(C(=N)NO)ccc3[nH]2)cc1 [Compound 51, N-hydroxy-2-[4′-(N-hydroxycarbamimidoyl)-2′-methyl-biphenyl-4-yl]-1H-benzimidazole-5-carboxamidine]",–,–,300 to 302 °C,–
"CC(=O)O.Cc1cc(C(=N)N)ccc1-c1ccc(-c2nc3cc(C(=N)N)ccc3[nH]2)cc1 [Compound 52, 2-(4′-carbamimidoyl-2′-methylbiphenyl-4-yl)-1H-benzimidazole-5-carboxamidine acetate salt]",–,–,193 to 195 °C,"IC50 ([2]; Table 2, read-out: T.b.r. IC50): 0.006 µM; IC50 [2, 5]: < 0.02 µM"
N=C(N)c1ccc(-c2ccc(-c3nc4ccc(C(=N)N)cc4[nH]3)cc2)cc1 [Compound 56],–,–,–,"IC50 ([1]; Table 2, read-out: P.f. IC50): 0.0005 µM; IC50 [1, 4]: < 0.003 µM; IC50 ([2]; Table 2, read-out: T.b.r. IC50): 0.0077 µM; IC50 [2, 5]: < 0.02 µM"

# From US20050148646A1, “Dicationic triaryl analogs as anti-protozoan agents” (priority 2003, published 2005)
